Measured values published in the supplement of paper PMC10307832.

What was measured:
Test in all cases: relative viability (nuclei count vs DMSO), 5 days (fraction); higher = more cells survive
[1] = compound: C=CC(=O)N1CCC[C@@H](n2nc(-c3ccc(Oc4ccccc4)cc3)c3c(N)ncnc32)C1 [Ibrutinib] + Cc1nc(NC(=O)N2CCC[C@H]2C(N)=O)sc1-c1ccnc(C(C)(C)C(F)(F)F)c1 [Alpelisib] (partner 2 µM)
Procedure, shortened: (§1)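 Dosing by pin tool came one day after lung cancer cell lines were seeded in 1536-well plates, using either one drug or a fixed anchor-drug dose plus five library-drug doses (not always all listed) in √10 steps. After 5 days, nuclei were counted on 4× images. Relative viability is treated-well nuclei count divided by vehicle-well nuclei count, and values are medians of duplicate plates.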

[2] = compound: C=CC(=O)N1CCC[C@@H](n2nc(-c3ccc(Oc4ccccc4)cc3)c3c(N)ncnc32)C1 [Ibrutinib] + O=C(c1cc(Cc2n[nH]c(=O)c3ccccc23)ccc1F)N1CCN(C(=O)C2CC2)CC1 [Olaparib] (partner 8 µM)
Procedure, shortened: as §1

[3] = compound: C=CC(=O)Nc1cc(-n2c(=O)ccc3cnc4ccc(-c5ccc(NS(C)(=O)=O)cc5)cc4c32)ccc1C [BMX-IN-1] + O=C(c1cc(Cc2n[nH]c(=O)c3ccccc23)ccc1F)N1CCN(C(=O)C2CC2)CC1 [Olaparib] (partner 8 µM)
Procedure, shortened: as §1

[4] = compound: C=CCc1cccc(/C=N/NC(=O)CN2CCN(Cc3ccccc3)CC2)c1O [PAC-1] + C[C@@H](Oc1cc(-c2cnn(C3CCNCC3)c2)cnc1N)c1c(Cl)ccc(F)c1Cl [Crizotinib] (partner 1 µM)
Procedure, shortened: as §1

Row | Cell Line | relative viability ([1]; first compound 0.005 µM) | relative viability ([1]; first compound 0.01581 µM) | relative viability ([1]; first compound 0.05 µM) | relative viability ([1]; first compound 0.1581 µM) | relative viability ([1]; first compound 0.5 µM) | relative viability ([2]; first compound 0.005 µM) | relative viability ([2]; first compound 0.01581 µM) | relative viability ([2]; first compound 0.05 µM) | relative viability ([2]; first compound 0.1581 µM) | relative viability ([2]; first compound 0.5 µM) | relative viability ([3]; first compound 0.02 µM) | relative viability ([3]; first compound 0.2 µM) | relative viability ([3]; first compound 0.6325 µM) | relative viability ([3]; first compound 2 µM) | relative viability ([4]; first compound 0.02 µM) | relative viability ([4]; first compound 0.06325 µM) | relative viability ([4]; first compound 0.2 µM) | relative viability ([4]; first compound 2 µM)
1 | HCC-366 | 0.459 | 0.496 | 0.372 | 0.414 | 0.466 | 0.401 | 0.33 | 0.357 | 0.403 | 0.381 | 0.416 | 0.406 | 0.442 | 0.361 | 0.542 | 0.479 | 0.454 | 0.591
2 | HCC-827 | 0.952 | 0.819 | 0.901 | 0.992 | 0.278 | 0.699 | 0.667 | 0.568 | 0.681 | 0.216 | 0.597 | 0.635 | 0.652 | 0.629 | 0.982 | 0.943 | 0.875 | 0.889
3 | HOP-62 | 0.638 | 0.954 | 1.02 | 1.2 | 0.918 | 0.549 | 0.387 | 0.504 | 0.628 | 0.381 | 0.403 | 0.485 | 0.33 | 0.379 | 0.844 | 1.01 | 1.02 | 0.954
4 | IA-LM | 0.826 | 0.732 | 0.682 | 0.658 | 1 | 0.881 | 0.891 | 0.797 | 0.936 | 1.04 | 0.871 | 0.843 | 0.938 | 0.94 | 0.862 | 0.865 | 0.75 | 0.751
5 | LC-2-ad | 0.874 | 0.944 | 0.936 | 0.836 | 0.758 | 0.802 | 0.719 | 0.859 | 0.741 | 0.739 | 0.829 | 0.848 | 0.674 | 0.733 | 0.383 | 0.436 | 0.443 | 0.398
6 | LCLC-97TM1 | 0.241 | 0.3 | 0.335 | 0.269 | 0.255 | 0.383 | 0.334 | 0.517 | 0.498 | 0.389 | 0.383 | 0.597 | 0.413 | 0.367 | – | 0.252 | 0.358 | 0.298
7 | LCLC-103H | 0.897 | 0.86 | 1.02 | 0.992 | 0.949 | 0.769 | 0.744 | – | 0.739 | 0.758 | 0.883 | 0.886 | 0.834 | 0.741 | 1.07 | 1.15 | 0.974 | 1.02
8 | LK-2 | – | 0.837 | 1.36 | 0.938 | 0.89 | 0.633 | 0.691 | 0.715 | 0.628 | 0.425 | 0.799 | 0.69 | 0.775 | 0.902 | 0.231 | 0.233 | 0.234 | 0.289
9 | LOU-NH91 | 0.652 | 0.597 | 0.592 | 0.67 | 0.48 | 0.836 | 0.751 | 0.798 | 0.931 | 0.692 | – | 0.978 | 0.946 | 0.862 | 0.747 | 0.762 | 0.723 | 0.728
10 | LU99A | 0.419 | 0.449 | 0.492 | 0.499 | 0.496 | 0.254 | 0.272 | 0.285 | 0.291 | 0.25 | 0.25 | 0.259 | 0.265 | 0.229 | 0.618 | 0.581 | 0.515 | 0.544
11 | LXF-289 | – | 1.03 | – | – | 0.908 | 1.16 | 0.994 | 1.01 | 1.03 | 1.02 | 1.32 | 1.19 | 1.12 | 1.14 | 0.833 | 0.807 | 0.789 | 0.835
12 | NCI-H23 | 0.514 | 0.695 | 0.566 | 0.76 | 0.6 | 0.335 | 0.355 | 0.383 | 0.41 | 0.311 | 0.304 | 0.415 | 0.312 | 0.229 | 0.481 | 0.396 | 0.489 | 0.535
13 | NCI-H322M | 0.752 | 0.807 | 0.779 | 0.838 | 0.486 | 0.766 | 0.768 | 0.775 | 0.725 | 0.659 | 0.781 | 0.836 | 0.77 | 0.72 | 0.792 | 0.839 | 0.877 | 0.854
14 | NCI-H522 | – | – | – | – | – | 0.587 | 0.605 | 0.653 | 0.644 | 0.573 | 0.656 | 0.689 | 0.66 | 0.601 | – | – | – | –
15 | NCI-H1395 | 0.997 | 0.988 | 1.35 | 1.16 | 0.997 | 0.475 | 0.472 | 0.469 | 0.468 | 0.449 | 0.433 | 0.45 | 0.452 | 0.45 | – | – | – | –
16 | NCI-H1563 | 1 | 0.883 | 0.882 | 1.09 | 0.946 | – | – | – | – | – | – | – | – | – | 0.851 | 0.801 | 0.784 | 0.969
17 | NCI-H1648 | – | – | – | – | – | 0.626 | 0.552 | 0.653 | 0.766 | 0.481 | 0.994 | 0.849 | 0.958 | 0.925 | – | – | – | –
18 | NCI-H1650 | – | – | – | – | – | 0.73 | 0.836 | 0.805 | 0.822 | 0.754 | 0.977 | 0.914 | 0.762 | 0.77 | 0.936 | 1.09 | 0.898 | 1.03
19 | NCI-H1793 | – | 0.635 | 0.605 | 0.587 | 0.575 | 0.669 | 0.562 | 0.582 | 0.833 | 0.4 | 1.1 | 1.01 | 1.05 | 0.92 | – | – | – | –
20 | NCI-H2342 | – | – | – | – | – | 0.422 | 0.413 | 0.438 | 0.457 | 0.268 | 0.44 | 0.446 | 0.473 | 0.43 | – | – | – | –
21 | SW 900 | – | – | – | – | – | 0.886 | 0.694 | 0.832 | 1.02 | 0.752 | 1.15 | 0.938 | 0.819 | 0.782 | – | – | – | –
